{"source": "patent US20020177625A1", "about": "“Class of glaucoma drugs to enhance aqueous humor outflow and lower intra-ocular pressure” (The Regents of the University of California, a California …, priority 2001, published 2002)", "system": "human TM cells", "assay": "Whole cell patch clamp ion conductances of human TM cells", "type": "cell-based", "experimental": "Further studies conducted with agents known to block Cl and K channels attenuate the swelling-activated regulatory volume decrease in TM cells and niflumic acid reduces both cell volume and intracellular [Cl] of TM cells. In these studies, human TM cells were cultured from donor eyes and used between passages three and eight. Routine whole cell patch clamp methods were used to assess conductances of TM cells in isotonic (290 mOsm) and hypotonic (230 mOsm) media, with or without NPPB, DIDS, TEA or niflumic acid. Conductances were determined from current/voltage plots, generated using a ramp protocol. […] The reversal potential observed in the presence of hypotonic medium was close to the calculated reversal potential for Cl. Switching to an external medium containing reduced Cl shifted the reversal potential toward that calculated for the low Cl medium. Treating the TM cells with the Cl channel blocker NPPB (100 μM) abolished the swelling-activated conductance in a manner reversed by subsequent washout of NPPB. […] Finally, treatment of the cells with the K channel blocker TEA (1 mM) also abolished the niflumic acid-activated TM cell conductance.\nHuman TM and SC cells grown to subconfluence are gently trypsinized on the day of the experiment and immediately exposed to trypsin-neutralizing solution and then allowed to settle onto standard square (22×22-mm) glass coverslips for 30 minutes before use. Routine patch clamp methods were used as described previously Barakat, A. I., et al., Circulation Research, 85: 820-828, 1999; Hamill, O. P. et al., Pflügers Archives, 391: 85-100, 1981; Mauro, T. et al., J of Invest. Dermatology, 105: 203-208, 1995; Pappone, P. A. et al., J. of Physiology, 306:377-410, 1980; Pappone, P. A. et al., J of Gen. Physiology, 106: 231-258, 1995; Pappone, P. A. et al., Amer. J. of Physiology: Cell Physiology, 264: C1014-C1019, 1993; Wilson, S. M. et al., J. of Gen. Physiology, 113: 125-138, 1999. Using the whole cell patch clamp mode, conductances were assessed for isotonic and hypotonic media. By assessing current/voltage (I/V) relationships and reversal potentials for the TM and SC cells while using specific concentrations of Cl in the pipette and bath media, the nature of the conductances observed can be determined.\nWhole cell currents were measured at room temperature in a Warner recording/perfusion chamber (Warner Instrument Corp.) using standard whole-cell patch clamp techniques as described previously, Lucero, M. T. et al., J. of Gen. Physiology, 95:523-544, 1999. Thick-walled borosilicate capillaries (Sutter Instruments, Inc., Novato, Calif.) were used to manufacture pipettes with resistances of 3 to 5 MW. The voltage offset between the patch pipette and the bath solution were nulled immediately before patch formation. An agar bridge containing […] KCl was used to ground the bath solution. Voltages were recorded from a patch-clamp amplifier (AXOPATCH 200A, Axon Instruments). Data was collected on a Macintosh personal computer using Pulse+Pulsefit software (HEKA Elektronik). Whole-cell currents were recorded from single (sub confluent) cells with membrane capacitances nulled through the patch-clamp amplifier. The voltage ramp protocol included a voltage step from the holding potential to +60 mV for 40 ms followed by a ramp to −100 mV over a period of 400 ms followed by a return to the holding potential. During the protocol, voltage ramps were conducted once every 5 seconds for 10 minutes, yielding 120 traces. Conductances were computed by taking the derivative of a least-squares straight line fit to the I-V data plots using Igor Pro Software (Wavemetrics, Inc.). In cases in which the I-V plots are not linear over the entire voltage ramp (as in FIGS. 6AB), computation of the whole-cell conductance were restricted to a linear range, typically 0 to +60 mV. […]", "note": "Entries after “also recorded” stand apart in the source; their conditions may differ.", "data": [{"smiles": "O=C(O)c1cccnc1Nc1cccc(C(F)(F)F)c1", "note": "[niflumic acid]", "values": [{"measurement": "reversal potential of the niflumic acid-activated conductance", "setting": "human TM cell, 100 μM niflumic acid, calculated reversal potentials Cl −22 mV, K −82 mV", "result": "very close to the Cl reversal potential; also recorded: quite close to the calculated reversal potential for Cl"}, {"measurement": "niflumic acid-activated conductance, dependence on bath ions", "setting": "human TM cells, niflumic acid 100 μM, K-free or Cl-free medium", "result": "abolished in K-free medium but not in Cl-free medium"}, {"measurement": "ion conductance of TM cells", "setting": "normal human TM cells, isotonic bath, niflumic acid 100 μM", "result": "activate an ion conductance; also recorded: rapid increase in conductance"}]}]}
